Laboratory results: publication PMC3968170 (PLoS Pathogens, 2014)

Experiments:
HitS ICD = target: T1, HitS ICD (Bacillus anthracis, UniProt Q81RT2); settings: 5 uM kinase, 37 C, 30 min; labelled compound
T1 construct: gene GBAA_1956

HssS ICD = target: T2, HssS ICD (Bacillus anthracis, UniProt A0AAC8N8V0); settings: 5 uM kinase, 37 C, 30 min; labelled compound
T2 construct: gene BA_3260
T2 sequence (A0AAC8N8V0 189-458 limits assumed): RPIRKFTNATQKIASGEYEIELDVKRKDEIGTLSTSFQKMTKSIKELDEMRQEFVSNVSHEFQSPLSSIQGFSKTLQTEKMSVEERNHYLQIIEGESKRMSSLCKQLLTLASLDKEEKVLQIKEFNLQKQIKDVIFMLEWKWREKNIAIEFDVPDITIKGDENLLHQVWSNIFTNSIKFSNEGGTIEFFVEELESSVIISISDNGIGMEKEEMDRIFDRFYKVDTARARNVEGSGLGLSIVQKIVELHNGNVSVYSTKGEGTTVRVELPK

T1 sequence (Q81RT2 74-351 limits assumed): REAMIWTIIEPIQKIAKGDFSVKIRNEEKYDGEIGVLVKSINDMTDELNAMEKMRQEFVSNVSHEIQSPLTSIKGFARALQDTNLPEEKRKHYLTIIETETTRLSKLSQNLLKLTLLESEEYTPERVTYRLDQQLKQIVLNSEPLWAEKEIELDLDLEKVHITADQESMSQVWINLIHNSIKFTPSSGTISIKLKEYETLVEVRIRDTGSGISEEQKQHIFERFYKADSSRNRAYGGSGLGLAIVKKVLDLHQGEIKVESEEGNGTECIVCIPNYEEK

With `Nc1ncnc2c1ncn2[C@@H]1O[C@H](COP(=O)(O)OP(=O)(O)OP(=O)(O)O)[C@@H](O)[C@H]1O` [ATP] the “autophosphorylation, SDS-PAGE and phosphorimager” value (HitS ICD) was “Both HKs autophosphorylate in the presence of ATP” and the “autophosphorylation, SDS-PAGE and phosphorimager” value (HssS ICD) was “Both HKs autophosphorylate in the presence of ATP”.
